Reference: patent US11793849B2, “Method of Chinese herbal medicine extract used for treating multiple diseases caused by drug resistant bacteria infection” (priority 2016, dated 2023)
Read-outs that look alike come from different tables or passages of the source.

Tested on: MDRAB
Assay: Checkerboard assay (combined-use MIC, FIC)
Assay type: cell-based, Acinetobacter baumannii
Details: for FIC, all strains / MIC50 of the antibiotic after combined use / MIC90 of the antibiotic after combined use / reduction of the antibiotic's MIC50 vs single use / reduction of the antibiotic's MIC90 vs single use / share of strains with FIC ≤ 0.5: 20 MDRABs; for MIC: Acinetobacter baumannii, read-out: single-use MIC
In short: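 Checkerboard combinations of S20b and antibiotic run per NCCLS method against ESBL E. coli, MDR A. baumannii and MDR P. aeruginosa.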

[1] = antibiotic with 60% ethanol extract
[2] = antibiotic with 95% ethanol extract
[3] = antibiotic with EA (10% ethanol extract)
[4] = antibiotic with EA (water extract)

C[C@@H](O)[C@H]1C(=O)N2C(C(=O)O)=C(SCCN=CN)C[C@H]12 [IMP, imipenem]
1 mg/L: MIC (strain A1, EA=60% ethanol extract) | MIC (strain A1, EA=95% ethanol extract) | combined-use MIC (strain A4, EA (water extract) with IMP)
16 mg/L: MIC90 of the antibiotic after combined use [1] | MIC90 of the antibiotic after combined use [2] | MIC90 of the antibiotic after combined use [3] | MIC90 of the antibiotic after combined use [4] | MIC (strain A10, EA=60% ethanol extract) | MIC (strain A10, EA=95% ethanol extract) | MIC (strain A17, EA=60% ethanol extract) | MIC (strain A17, EA=95% ethanol extract) | combined-use MIC (strain A2, EA (water extract) with IMP) | combined-use MIC (strain A3, EA (water extract) with IMP) | combined-use MIC (strain A5, EA (water extract) with IMP) | combined-use MIC (strain A6, EA (60% ethanol extract) + IMP combined) | combined-use MIC (strain A6, EA (95% ethanol extract) + IMP combined) | combined-use MIC (strain A6, EA (water extract) with IMP) | combined-use MIC (strain A7, EA (60% ethanol extract) + IMP combined) | combined-use MIC (strain A7, EA (95% ethanol extract) + IMP combined) | combined-use MIC (strain A7, EA (water extract) with IMP) | combined-use MIC (strain A8, EA (10% ethanol extract) with IMP) | combined-use MIC (strain A8, EA (60% ethanol extract) + IMP combined) | combined-use MIC (strain A8, EA (95% ethanol extract) + IMP combined) | combined-use MIC (strain A8, EA (water extract) with IMP) | combined-use MIC (strain A9, EA (water extract) with IMP) | combined-use MIC (strain A12, EA (water extract) with IMP) | combined-use MIC (strain A13, EA (water extract) with IMP) | combined-use MIC (strain A14, EA (10% ethanol extract) with IMP) | combined-use MIC (strain A18, EA (10% ethanol extract) with IMP)
32 mg/L: MIC (strain A2, EA=60% ethanol extract) | MIC (strain A2, EA=95% ethanol extract) | MIC (strain A3, EA=60% ethanol extract) | MIC (strain A3, EA=95% ethanol extract) | MIC (strain A5 (printed AS in tables A43, A45), EA=95% ethanol extract) | MIC (strain A5, EA=60% ethanol extract) | MIC (strain A6, EA=60% ethanol extract) | MIC (strain A6, EA=95% ethanol extract) | MIC (strain A7, EA=60% ethanol extract) | MIC (strain A7, EA=95% ethanol extract) | MIC (strain A8, EA=60% ethanol extract) | MIC (strain A8, EA=95% ethanol extract) | MIC (strain A9, EA=60% ethanol extract) | MIC (strain A9, EA=95% ethanol extract) | MIC (strain A11, EA=60% ethanol extract) | MIC (strain A11, EA=95% ethanol extract) | MIC (strain A12, EA=60% ethanol extract) | MIC (strain A12, EA=95% ethanol extract) | MIC (strain A13, EA=60% ethanol extract) | MIC (strain A13, EA=95% ethanol extract) | MIC (strain A14, EA=60% ethanol extract) | MIC (strain A14, EA=95% ethanol extract) | MIC (strain A15, EA=60% ethanol extract) | MIC (strain A15, EA=95% ethanol extract) | MIC (strain A16, EA=60% ethanol extract) | MIC (strain A16, EA=95% ethanol extract) | MIC (strain A18, EA=60% ethanol extract) | MIC (strain A18, EA=95% ethanol extract) | MIC (strain A19, EA=60% ethanol extract) | MIC (strain A19, EA=95% ethanol extract) | MIC (strain A20, EA=60% ethanol extract) | MIC (strain A20, EA=95% ethanol extract)
≤ 1: FIC, all strains [1] | FIC, all strains [2] | FIC, all strains [3] | FIC, all strains [4]
0.5 mg/L: combined-use MIC (strain A1, EA (10% ethanol extract) with IMP) | combined-use MIC (strain A1, EA (60% ethanol extract) + IMP combined) | combined-use MIC (strain A1, EA (95% ethanol extract) + IMP combined) | combined-use MIC (strain A1, EA (water extract) with IMP) | combined-use MIC (strain A4, EA (60% ethanol extract) + IMP combined) | combined-use MIC (strain A4, EA (95% ethanol extract) + IMP combined)
75%: reduction of the antibiotic's MIC50 vs single use [1] | reduction of the antibiotic's MIC50 vs single use [2] | reduction of the antibiotic's MIC50 vs single use [3] | reduction of the antibiotic's MIC50 vs single use [4]
55%: share of strains with FIC ≤ 0.5 [2]
35%: share of strains with FIC ≤ 0.5 [4]
70%: share of strains with FIC ≤ 0.5 [1]
45%: share of strains with FIC ≤ 0.5 [3]
8 mg/L: MIC50 of the antibiotic after combined use [1] | MIC50 of the antibiotic after combined use [2] | MIC50 of the antibiotic after combined use [3] | MIC50 of the antibiotic after combined use [4] | MIC (strain A4, EA=60% ethanol extract) | MIC (strain A4, EA=95% ethanol extract) | combined-use MIC (strain A2, EA (10% ethanol extract) with IMP) | combined-use MIC (strain A2, EA (60% ethanol extract) + IMP combined) | combined-use MIC (strain A2, EA (95% ethanol extract) + IMP combined) | combined-use MIC (strain A3, EA (10% ethanol extract) with IMP) | combined-use MIC (strain A3, EA (60% ethanol extract) + IMP combined) | combined-use MIC (strain A3, EA (95% ethanol extract) + IMP combined) | combined-use MIC (strain A4, EA (10% ethanol extract) with IMP) | combined-use MIC (strain A5, EA (10% ethanol extract) with IMP) | combined-use MIC (strain A5, EA (60% ethanol extract) + IMP combined) | combined-use MIC (strain A7, EA (10% ethanol extract) with IMP) | combined-use MIC (strain A9, EA (10% ethanol extract) with IMP) | combined-use MIC (strain A10, EA (10% ethanol extract) with IMP) | combined-use MIC (strain A10, EA (60% ethanol extract) + IMP combined) | combined-use MIC (strain A10, EA (95% ethanol extract) + IMP combined) | combined-use MIC (strain A10, EA (water extract) with IMP) | combined-use MIC (strain A11, EA (10% ethanol extract) with IMP) | combined-use MIC (strain A11, EA (water extract) with IMP) | combined-use MIC (strain A12, EA (10% ethanol extract) with IMP) | combined-use MIC (strain A12, EA (60% ethanol extract) + IMP combined) | combined-use MIC (strain A12, EA (95% ethanol extract) + IMP combined) | combined-use MIC (strain A13, EA (10% ethanol extract) with IMP) | combined-use MIC (strain A13, EA (60% ethanol extract) + IMP combined) | combined-use MIC (strain A13, EA (95% ethanol extract) + IMP combined) | combined-use MIC (strain A14, EA (95% ethanol extract) + IMP combined) | combined-use MIC (strain A15, EA (10% ethanol extract) with IMP) | combined-use MIC (strain A15, EA (95% ethanol extract) + IMP combined) | combined-use MIC (strain A16, EA (10% ethanol extract) with IMP) | combined-use MIC (strain A16, EA (60% ethanol extract) + IMP combined) | combined-use MIC (strain A16, EA (95% ethanol extract) + IMP combined) | combined-use MIC (strain A16, EA (water extract) with IMP) | combined-use MIC (strain A18, EA (60% ethanol extract) + IMP combined) | combined-use MIC (strain A18, EA (95% ethanol extract) + IMP combined) | combined-use MIC (strain A18, EA (water extract) with IMP) | combined-use MIC (strain A19, EA (10% ethanol extract) with IMP) | combined-use MIC (strain A19, EA (60% ethanol extract) + IMP combined) | combined-use MIC (strain A19, EA (95% ethanol extract) + IMP combined) | combined-use MIC (strain A19, EA (water extract) with IMP) | combined-use MIC (strain A20, EA (10% ethanol extract) with IMP) | combined-use MIC (strain A20, EA (60% ethanol extract) + IMP combined) | combined-use MIC (strain A20, EA (95% ethanol extract) + IMP combined) | combined-use MIC (strain A20, EA (water extract) with IMP) | combined-use MIC (strain AS, EA (95% ethanol extract) + IMP combined)
4 mg/L: combined-use MIC (strain A6, EA (10% ethanol extract) with IMP) | combined-use MIC (strain A9, EA (60% ethanol extract) + IMP combined) | combined-use MIC (strain A9, EA (95% ethanol extract) + IMP combined) | combined-use MIC (strain A11, EA (60% ethanol extract) + IMP combined) | combined-use MIC (strain A11, EA (95% ethanol extract) + IMP combined) | combined-use MIC (strain A14, EA (60% ethanol extract) + IMP combined) | combined-use MIC (strain A14, EA (water extract) with IMP) | combined-use MIC (strain A15, EA (60% ethanol extract) + IMP combined) | combined-use MIC (strain A15, EA (water extract) with IMP) | combined-use MIC (strain A17, EA (10% ethanol extract) with IMP)
2 mg/L: combined-use MIC (strain A17, EA (60% ethanol extract) + IMP combined) | combined-use MIC (strain A17, EA (95% ethanol extract) + IMP combined) | combined-use MIC (strain A17, EA (water extract) with IMP)
50%: reduction of the antibiotic's MIC90 vs single use [1] | reduction of the antibiotic's MIC90 vs single use [2] | reduction of the antibiotic's MIC90 vs single use [3] | reduction of the antibiotic's MIC90 vs single use [4]
